# Data published in US6579896B2, “Method for treating allergies using substituted pyrazoles” (Ortho-McNeil Pharmaceutical, Inc., priority 2000, dated 2003).
# Legend:
# [1] = tested on: invariant chain (Ii) degradation by cathepsin S in PBMC; assay: Monitoring cathepsin S inhibition in human blood: p10Ii fragment accumulation (Western blot); assay type: cell-based; details: PBMC from human blood, incubation for 24 h, SDS-PAGE / Western blot
# [2] = tested on: PBMC from HDM-allergic donors (allergen-specific CD4 T cells); assay: Ex vivo human T cell-proliferation assay, house dust mite extracts (Der p, Der f); assay type: cell-based; details: PBMC of four HDM-allergic donors, Der p or Der f extract, 7 days culture, FIG. 1B
# [3] = tested on: PBMC from allergic donors (T cells, ConA pan-T cell mitogen); assay: T cell proliferative responses induced by ConA; assay type: cell-based, human; details: specificity control
# [4] = tested on: PBMC from ragweed-allergic donors (allergen-specific CD4 T cells); assay: Ex vivo human T cell-proliferation assay, ragweed extracts (short and giant); assay type: cell-based; details: PBMC of two ragweed-allergic donors, short and giant ragweed extract, 7 days culture, FIG. 2B
structure (smiles),measurement,setting,value
"CC(C)C[C@H](NC(=O)N1CCOCC1)C(=O)N[C@H](/C=C/S(=O)(=O)c1ccccc1)CCc1ccccc1 [LHVS, 4-morpholinecarboxamide, N-[(1S)-3-methyl-1-[[[(1S,2E)-1-(2-phenylethyl)-3-(phenylsulfonyl)-2-propenyl]amino]carbonyl]butyl]-]",p10Ii fragment of invariant chain (block in degradation of Ii),[1],the p10Ii fragment was seen
same,T cell proliferation (3H-thymidine incorporation) induced by HDM extracts,[2],strongly inhibited
same,T cell proliferative responses induced by ConA,[3]; HDM-allergic donors,not affected
same,T cell proliferative responses induced by ConA,[3]; ragweed-allergic donors,not affected
same,T cell proliferation (3H-thymidine incorporation) induced by ragweed extracts,[4],strongly inhibited
